In one test the target is D3R (Homo sapiens (Human), UniProt P35462). In words: D3 Mitogenesis Functional Assay (3H-thymidine uptake, CHOp-D3 cells). It is filed as cell-based. The following applies: for Emax at 10 µM: % maximum stimulation vs quinpirole (100%), read-out: D3 Agonist Emax; for IC50: read-out: D3 Antagonist IC50; for D3 Antagonist Imax: inhibition of quinpirole stimulation of mitogenesis. The method, then: (§1) These assays are based on ^3H-thymidine uptake by cells that are proliferating.
CHO cells expressing human D3 receptors (CHOp-D3 cells) were maintained in alpha-MEM with 10% fetal bovine serum (FBS, Atlas Biologicals), 0.05% pen-strep, and 200 μg/ml of G418. […] The cells are incubated at 37° C. in alpha-MEM with 10% FBS. After 48-72 hours, the cells are rinsed twice with serum-free alpha-MEM and incubated for 24 hours at 37° C. Serial dilutions of test compounds were made by the Biomek robotics system in serum-free alpha-MEM. In the functional assay for agonism, the medium is removed and replaced with 100 μL of test compound in serum-free alpha-MEM. In the antagonist assay, the serial dilution of the putative antagonist test compound was added in 90 μL (1.1× of final concentration) and 300 nM quinpirole (30 nM final) was added in 10 uL. After another 16-hour incubation at 37° C., 0.25 μCi of [^3H]thymidine in alpha-MEM supplemented with 10% FBS was added to each well and the plates were further incubated for 2 hours at 37° C. The cells were trypsinized by addition of 10× trypsin solution (1% trypsin in calcium-magnesium-free phosphate-buffered saline) and the plates were filtered and counted as usual. Quinpirole was run as an internal control and dopamine was included for comparative purposes. Butaclamol was run as the standard antagonist. Data were analyzed using GraphPAD Prism and agonist potency was expressed as EC50 values or % stimulation and antagonist potency was expressed as IC50 values. In these assays, based on the % maximum stimulation as compared to the standard agonist quinpirole (100%) the compounds were classified into following categories: ≧90% full agonist; 70-90% partial to full agonist; <70% partial agonist; 0-20% potential antagonist.

Another test concerns the target human D2 receptors (Homo sapiens (Human), UniProt P14416). Kind of test: D2 Mitogenesis Functional Assay (3H-thymidine uptake, CHOp-D2 cells). It is filed as cell-based. The following applies: for Emax at 10 µM: % maximum stimulation vs quinpirole (100%), read-out: D2 Agonist Emax; for IC50: read-out: D2 Antagonist IC50; for Emax at 10 µM / D2 Antagonist Imax: at 10 μM; for D2 Antagonist Imax: inhibition of quinpirole stimulation of mitogenesis. The method, then:
as §1
CHO cells expressing human D2 receptors (CHOp-D2 cells) were maintained in alpha-MEM with 10% FCS, 0.05% pen-strep, and 200 μg/mL of G418. […] The cells were incubated at 37° C. in alpha-MEM with 10% FCS. After 48-72 hours, the cells were rinsed twice with serum-free alpha-MEM and incubated for 24 hours at 37° C. Serial dilutions of test compounds were made by the Biomek robotics system in serum-free alpha-MEM. In the functional assay for agonism, the medium was removed and replaced with 100 μL of test compound in serum-free alpha-MEM. In the antagonist assay, the serial dilution of the putative antagonist test compound was added in 90 μL (1.1× of final concentration) and 300 nM quinpirole (30 nM final) was added in […]. After another 24-hour incubation at 37° C., 0.25 μCi of [^3H]thymidine in alpha-MEM supplemented with 10% FCS was added to each well and the plates were further incubated for 2 hours at 37° C. The cells were trypsinized by addition of 10× trypsin solution (1% trypsin in calcium-magnesium-free phosphate-buffered saline) and the plates were filtered and counted as usual. Quinpirole was run as an internal control and dopamine was included for comparative purposes. Butaclamol was run as the standard antagonist.

Test [1] deals with human D2-long dopamine receptor (Homo sapiens (Human), UniProt P14416). Kind of test: Radioligand binding (125I-IABN competition), D2. To be noted: HEK cell membranes expressing human D2-long. The method, then:
(§2) The affinities of the target compounds were determined using radioligand binding experiments. […] Competition curves were modeled for a single site. Data from competition dose-response curves were analyzed using Tablecurve program (Jandel). IC50 values were converted to equilibrium dissociation constants (Ki values) using the Cheng and Prusoff correction.

In test [2] the target is T1, human D3 dopamine receptor (Homo sapiens (Human), UniProt P35462). Kind of test: Radioligand binding (125I-IABN competition), D3. The following applies: for Ki: 125I-IABN competition, HEK cell membranes expressing human D3; for D2/D3 (D3 selectivity ratio, D2 Ki/D3 Ki): calculated D2 Ki/D3 Ki. The method, then:
as §2

Test [3] concerns the target T1, human D3 dopamine receptor. Kind of test: Whole Cell Adenylyl Cyclase Assay, D3. It is filed as cell-based. The following applies: inhibition of forskolin (100 μM) stimulated cAMP, normalized to quinpirole; compound conc ≥10× Ki (per compound); mean ± S.E.M. The method, then: The intrinsic activity of the compounds was evaluated by determining their ability to inhibit forskolin-dependent (100 μM) stimulation of adenylyl cyclase activity using a whole cell assay. A whole cell-cyclic AMP accumulation assay was performed with stably transfected HEK cells expressing human D2 or D3 dopamine receptors. This assay is an adaptation of an earlier published method (Su et al., Cyclic Nucleotide Res. 1976, 2, 257-285). Details regarding this method have been published (Chu, W. et al. Bioorg. Med. Chem. 2005, 13, 77-87; Taylor, M. et al. Synapse 2010, 64, 251-266). Confluent (60-80%) HEK cells transfected with recombinant D2-like dopamine receptors were grown in DMEM/10% fetal calf serum containing geneticin in […] flasks. The endogenous ATP pool is radioactively labeled by preincubating the cells in serum-free DMEM/25 mM Hepes medium containing 2 μCi/mL of [2,8-^3H]-adenine (20-Ci/mmol) in a 5% CO2 incubator at 37° C. for 75 min. The radioactive medium was removed by aspiration. Serum-free DMEM (5.6 mL) containing 25 mM HEPES, pH 7.4, and 0.1 mM of the phosphodiesterase inhibitor isobutylmethylxanthine was added to the flask. A […] aliquot of cells was removed and added to 50 μL of forskolin (100 μM) and 50 μL of test drug or quinpirole in DMEM-HEPES. The cells were incubated for 20 min at 37° C. (vortexing every 5 min). The reaction was terminated by the addition of 0.5 mL of 10% trichloroacetic acid (w/v) containing 1.0 mM unlabeled cyclic AMP as a recovery standard. Both the [^3H]-cyclic AMP and the [^3H]-ATP fractions were collected following separation using columns of Dowex AG-50W-X4 and alumina. The final yield of [^3H]-cyclic AMP is corrected for column recovery of unlabeled cyclic AMP determined spectrophotometrically (OD259). The results are reported as percent conversion of [^3H]-ATP into [^3H]-cyclic AMP. The values for the percent inhibition are reported as the actual percent of inhibition of the ^3H-cAMP accumulation relative to the assay performed in the absence of a test compound, minus basal activity. […] The percent maximum response is the value for the inhibition normalized to the value for the full agonist quinpirole.

The mark [4] stands for this setting: inhibition of quinpirole (30 nM final) stimulation of mitogenesis.

Like-named read-outs stand apart in the source and are kept apart here.

The term Emax denotes the maximal effect, on the per cent scale that the assay sets. The term IC50 denotes the concentration needed to halve the response being measured. A word on the Ki: it is a measure of affinity in units of concentration, obtained from inhibition or displacement. For orientation: EC50 means the concentration giving half of the maximal effect.

Sequence of human D2-long dopamine receptor (P14416 whole entry): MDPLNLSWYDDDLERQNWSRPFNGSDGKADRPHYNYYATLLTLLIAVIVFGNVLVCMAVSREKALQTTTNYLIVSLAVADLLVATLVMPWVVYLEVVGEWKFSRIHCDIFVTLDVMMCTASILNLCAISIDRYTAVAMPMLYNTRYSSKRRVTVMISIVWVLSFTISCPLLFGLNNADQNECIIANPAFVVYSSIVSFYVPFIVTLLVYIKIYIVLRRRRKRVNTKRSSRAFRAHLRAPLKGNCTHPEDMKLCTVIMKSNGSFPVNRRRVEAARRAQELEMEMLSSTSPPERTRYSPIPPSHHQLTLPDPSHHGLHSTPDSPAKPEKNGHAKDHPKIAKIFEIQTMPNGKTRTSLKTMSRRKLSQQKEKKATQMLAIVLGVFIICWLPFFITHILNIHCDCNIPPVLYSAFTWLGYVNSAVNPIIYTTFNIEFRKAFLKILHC
Sequence of human D2 receptors (P14416 whole entry): as above
T1 sequence (P35462 whole entry): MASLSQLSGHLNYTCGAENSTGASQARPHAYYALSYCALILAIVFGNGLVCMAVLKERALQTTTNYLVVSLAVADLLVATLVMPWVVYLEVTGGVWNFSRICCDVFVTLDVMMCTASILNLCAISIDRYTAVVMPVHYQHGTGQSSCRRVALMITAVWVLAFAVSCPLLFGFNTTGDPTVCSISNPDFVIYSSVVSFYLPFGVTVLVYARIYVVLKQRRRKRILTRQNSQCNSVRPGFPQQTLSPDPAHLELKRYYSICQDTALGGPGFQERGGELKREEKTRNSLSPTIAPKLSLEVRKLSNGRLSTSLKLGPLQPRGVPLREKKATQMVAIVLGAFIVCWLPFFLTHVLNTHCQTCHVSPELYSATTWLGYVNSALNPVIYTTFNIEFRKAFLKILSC
Sequence of D3R (P35462 whole entry): as above

On to `CC(C)(C)c1nc(N2CCN(CCCCNC(=O)c3cn4cccnc4n3)CC2)cc(C(F)(F)F)n1` [Compound 114, N-(4-(4-(2-(tert-Butyl)-6-(trifluoromethyl)pyrimidin-4-yl)piperazin-1-yl)butyl)imidazo[1,2-a]pyrimidine-2-carboxamide], for which the Emax at 10 µM is 14% on D3R and under 1% on human D2 receptors. Moreover, the IC50 was determined as 0.051 ± 0.021 µM on D3R (setting [4]) and 0.205 ± 0.048 µM on human D2 receptors (setting [4]). Besides, the Ki in test [1] came to 0.435 ± 0.0434 µM; in test [2], 0.0118 ± 0.0011 µM. For the same molecule, in test [2], the “D2/D3 (D3 selectivity ratio, D2 Ki/D3 Ki)” value is recorded as 37.
On to `CC(C)(C)c1nc(N2CCN(CCCCNC(=O)N3CCN(c4ccccc4)CC3)CC2)c2ccccc2n1` [Compound 13, N-(4-(4-(2-(tert-Butyl)quinazolin-4-yl)piperazin-1-yl)butyl)-4-phenylpiperazine-1-carboxamide], for which, in test [3], the “D3 Cyclase % Inhibition Normalized” value was 61.9 ± 6.4%. Besides, the Ki in test [1] was 4.04 ± 0.965 µM. Moreover, in test [2], the Ki came out at 0.0431 ± 0.0048 µM and the “D2/D3 (D3 selectivity ratio, D2 Ki/D3 Ki)” value was 94.
The like results for `Cc1nc(N2CCN(CCCCNC(=O)N3CCN(c4ccccc4)CC3)CC2)cc(C(C)(C)C)n1` [Compound 6, N-(4-(4-(6-(tert-Butyl)-2-methylpyrimidin-4-yl)piperazin-1-yl)butyl)-4-phenylpiperazine-1-carboxamide] were, in that order, 26.4 ± 4.6%, 12.9 ± 2.51 µM, 0.0292 ± 0.0053 µM and 442.
Consider `CC(C)(C)c1nc(N2CCN(CCCCNC(=O)c3cn4nc(Cl)ccc4n3)CC2)cc(C(F)(F)F)n1` [Compound 116, N-(4-(4-(2-(tert-Butyl)-6-(trifluoromethyl)pyrimidin-4-yl)piperazin-1-yl)butyl)-6-chloroimidazo[1,2-b]pyridazine-2-carboxamide], for which the maximal effect (Emax) at 10 µM on D3R and at human D2 receptors was under 1% throughout. In addition, the “D3 Cyclase % Inhibition Normalized” value in test [3] is 31.5 ± 7.0%. Also, the IC50 on human D2 receptors (setting [4]) amounted to 1.16 ± 0.11 µM. This molecule registered a Ki in test [1] of 0.655 ± 0.0806 µM.
In the case of `O=C(NCCCCN1CCN(c2cccc(Cl)c2Cl)CC1)N1CCC(c2ccccc2)CC1` [Compound 47, N-(4-(4-(2,3-Dichlorophenyl)piperazin-1-yl)butyl)-4-phenylpiperidine-1-carboxamide], at D3R, the Emax at 10 µM is under 20%, the “D3 Antagonist Imax” value is given as 96.8% and the IC50 is 0.04 ± 0.015 µM. Besides, in test [3], the “D3 Cyclase % Inhibition Normalized” value worked out at 78.9 ± 17.1%. Further, at human D2 receptors, the Emax at 10 µM is under 20%, the “D2 Antagonist Imax” value is recorded as 98.5% at 10 μM and the IC50 was determined as 0.286 ± 0.027 µM. The molecule further displayed a Ki in test [1] of 0.102 ± 0.011 µM. Also, in test [2], the Ki was 0.0019 ± 0.0004 µM and the “D2/D3 (D3 selectivity ratio, D2 Ki/D3 Ki)” value is given as 53.
Take `CC(C)(C)c1nc(N2CCN(CCCCNC(=O)N3CCN(c4ncccn4)CC3)CC2)cc(C(F)(F)F)n1` [Compound 32, N-(4-(4-(2-(tert-Butyl)-6-(trifluoromethyl)pyrimidin-4-yl)piperazin-1-yl)butyl)-4-(pyrimidin-2-yl)piperazine-1-carboxamide]: at D3R (CHOp-D3 cells, stimulation of mitogenesis, read-out: D3 Agonist EC50), the EC50 is over 10 µM. On D3R, the Emax at 10 µM is under 8%, the “D3 Antagonist Imax” value amounted to 84.4% and the IC50 was determined as 0.195 ± 0.039 µM. In addition, in test [3], the “D3 Cyclase % Inhibition Normalized” value amounted to 40.8 ± 9.7%. In addition, on human D2 receptors (CHOp-D2 cells, stimulation of mitogenesis, read-out: D2 Agonist EC50), the EC50 was over 10 µM. On human D2 receptors, the Emax at 10 µM is under 1%, the “D2 Antagonist Imax” value turned out to be 100% at 10 μM and the IC50 came to 0.257 ± 0.09 µM. The same molecule returned a Ki in test [1] of 1.19 ± 0.0674 µM. Moreover, in test [2], the Ki stood at 0.0137 ± 0.0031 µM and the “D2/D3 (D3 selectivity ratio, D2 Ki/D3 Ki)” value was 87.
For `CC(C)(C)c1nc(N2CCN(CCCCNC(=O)C3CCC(c4ccccc4)CC3)CC2)cc(C(F)(F)F)n1` (centres unmarked) [Compound 103, N-(4-(4-(2-(tert-Butyl)-6-(trifluoromethyl)pyrimidin-4-yl)piperazin-1-yl)butyl)-4-phenylcyclohexanecarboxamide], in test [3], the “D3 Cyclase % Inhibition Normalized” value is listed as 51.6 ± 13.4%.
Turning to `O=C(NCCCCN1CCN(c2ccnc3ccccc23)CC1)c1cn2ccccc2n1` [Compound 117, N-(4-(4-(Quinolin-4-yl)piperazin-1-yl)butyl)imidazo[1,2-a]pyridine-2-carboxamide], at D3R, the Emax at 10 µM was under 20% and the “D3 Antagonist Imax” value is 97.2%. Besides, the IC50 at D3R (setting [4]) was determined as 0.12 ± 0.022 µM. The molecule also came in with a Ki in test [1] of 0.572 µM. Further, in test [2], the Ki turned out to be 0.0205 ± 0.0035 µM and the “D2/D3 (D3 selectivity ratio, D2 Ki/D3 Ki)” value was 28.
On to `CC(C)(C)c1nc(N2CCN(CCCCNC(=O)c3cn4ccncc4n3)CC2)cc(C(F)(F)F)n1` [Compound 115, N-(4-(4-(2-(tert-Butyl)-6-(trifluoromethyl)pyrimidin-4-yl)piperazin-1-yl)butyl)imidazo[1,2-a]pyrazine-2-carboxamide], for which, at D3R, the Emax at 10 µM is under 20% and the “D3 Antagonist Imax” value is 94.7%. Further, the IC50 at D3R (setting [4]) was determined as 0.245 ± 0.033 µM. For the same molecule, the “D3 Cyclase % Inhibition Normalized” value in test [3] is on record as 37.8 ± 5.4%. Further, on human D2 receptors, the Emax at 10 µM is under 20% and the “D2 Antagonist Imax” value is 96.6% at 10 μM. Besides, the IC50 at human D2 receptors (setting [4]) worked out at 0.42 ± 0.12 µM. The same molecule gave a Ki in test [1] of 0.45 µM. In test [2], the Ki stood at 0.008 ± 0.0016 µM and the “D2/D3 (D3 selectivity ratio, D2 Ki/D3 Ki)” value is 56.

The values above are taken from patent US9598387B2 (Southern Research Institute, priority 2012, dated 2017).
